Data published in publication PMC6843786, “Temporin-SHa and Its Analogs as Potential Candidates for the Treatment of Helicobacter pylori” (Biomolecules, 2019).
Read-outs that look alike come from different tables or passages of the source. Non-standard residues stand in square brackets, D forms with d. Residues, ends and D or L forms follow the SMILES beside them.

How the values were obtained:
H. pylori (ATCC 43504) [1] = assay: MIC after digestion by pepsin (resistance to pepsin); settings: 4 h at 37 °C with pepsin 1 mg/mL in HCl pH 2
Description: (§1) Briefly, after the growth of H. pylori in liquid culture the optical density (OD) of the bacterial suspensions were read at 600 nm and adjusted to one. Stock solutions of the peptides at 1 mM were prepared in sterile water. Bacteria were diluted in medium to reach bacterial density around 10^5 bacteria/mL. One-hundred microliters per well of bacterial suspension were then added into sterile polypropylene 96-well microplates (Greiner BioOne, Paris, France) and exposed to increasing concentrations of peptides (from zero to 100 µM, 1:2 serial dilution). […] Plates were incubated at 37 °C for 24 h for H. pylori (ATCC 43504) and for 4–7 days for the clinical strains. H. pylori was tested in microaerophilic conditions generated using micro-anaerobic BD GasPak system. At the end of the incubation, OD600nm was measured using microplate reader (Synergy Mx, Biotek, Colmar, France). The MIC was defined as the lowest concentration of drug that inhibited visible growth of the organism. Experiments were conducted in independent triplicate (n = 3).
(§2) It is also rich with mucus to protect it from the aggressive acidity. For this reason, the impact of mucins and pepsin on the activity of the peptides was investigated. The impact of the gastric mucins on peptide activity was evaluated using a combination of commercial porcine stomach mucins MUC2 and MUC3 (Sigma–Aldrich) at a final concentration of 1 mg/mL sterilized using 0.2 µm filter. This concentration was used based on the estimated concentration of mucins present in the mucus in vivo [27]. The effect of mucins on peptides activity was evaluated by MIC and by time killing assay as explained below. The resistance of the peptides to pepsin was tested as previously described with some changes. […] This concentration was used since it corresponds the pepsin concentration in the stomach (0.5–1 mg/mL).

[2] = test system: total lipids extracted from H. pylori (ATCC 43504); assay: Lipid insertion assay (lipid monolayer, critical pressure of insertion); parameters: species or system biophysical; settings: peptide 1 µM, PBS pH 7.4, from the line fits of Figure 4
Description: Peptide-lipid interaction was measured using reconstituted lipid monolayer at the air-water interface as previously described. Total lipids were extracted from overnight cultures of H. pylori (ATCC 43504) using Folch extraction procedure as previously described. Extracted total lipids were dried, resolubilized in chloroform:methanol (2:1, v/v) and stored at -20 °C under nitrogen. For peptide-lipid interaction assay, total lipid extract was spread using a 50 μL Hamilton's syringe at the surface of 800 μL of sterile PBS creating a lipid monolayer at the air-water interface. Lipids were added until the surface pressure reached the desired value. […] The variation of the surface pressure caused by peptide injection was then continuously monitored using a fully automated microtensiometer (μTROUGH SX, Kibron Inc., Helsinki, Finland) until reaching equilibrium (maximal surface pressure increase being usually obtained after 15-25 min). […] Variation of surface pressure was plotted as a function of initial surface pressure and the critical pressure of insertion of each peptide into H. pylori lipids was calculated as the theoretical value of initial pressure of lipid monolayer not permissive to peptide insertion, i.e., giving a variation of pressure equal to 0 mN/m.

N87 cells = assay: In vitro toxicity assay using human gastric cells (resazurin); assay type: cell-based
Description: [26] Human gastric cells N87 (ATCC CRL-5822) were cultured in RPMI-1640 medium supplemented with 10% fetal calf serum (FCS), 1% L-glutamine and 1% antibiotics (all from Invitrogen, Carlsbad, CA, USA) and were routinely seeded onto 25 cm^2 flasks maintained in a 5% CO2 incubator at 37 °C. For the toxicity assay, cells grown on 25 cm^2 flasks were detached using trypsin–EDTA solution (from Thermofisher), counted using Mallasez counting chamber and seeded into 96-well cell culture plates (Greiner Bio-one) at approximately 10^4 cells per well. The cells were left to grow for 48–72 h at 37 °C in a 5% CO2 incubator until they reached confluence. Plates were then aspirated and increasing concentrations of peptides were added to the cells for 48 h at 37 °C in a 5% CO2 incubator, volume of water corresponding to the volume of peptides being used as negative control. At the end of the incubation, wells were aspirated, and cell viability was evaluated using resazurin-based in vitro toxicity assay kit (Sigma-Aldrich) following manufacturer’s instructions. Briefly, resazurin stock solution was diluted 1:10 in sterile PBS containing calcium and magnesium (PBS^++, pH 7.4) and empty wells were filled with 100 µL of the diluted solution. After 4 h incubation at 37 °C, fluorescence intensity was measured using microplate reader (Synergy Mx, Biotek) with an excitation wavelength of 530 nm and an emission wavelength of 590 nm. The fluorescence values were normalized by the controls and expressed as percent viability.

H. pylori (ATCC 43504) [3] = test system: H. pylori (ATCC 43504)
Description: (§3) H. pylori used in this study were either the reference strain obtained from the American Type Culture Collection (ATCC 43504) or clinical strains received frozen from our collaborator Josette Raymond from Hospital Cochin, Paris. Strains were obtained from patients who underwent a gastroendoscopy performed for various gastro-intestinal disorders according to the recommendations of Haute Autorité de Santé (HAS). During the endoscopy, biopsy samples were taken from antrum and corpus. Samples were then crushed, and the material was used for bacterial culture and molecular methods. An antibiogram was performed and strains were then frozen at -80 °C in a broth with 10% glycerol. Bacteria were cultured as previously described. Briefly, H. pylori (ATCC 43504) was cultured in brain heart infusion (BHI) and incubated at 37 °C for 16 h in microaerophilic condition in BD GasPak EZ using BD GasPak EZ CampyPak container system sachets (BD Biosciences, Le Pont-de-Claix, France). For clinical strains, a sample from the frozen bacteria was streaked on Blood Agar (Base) (Sigma-Aldrich, Illkirch-Graffenstaden, France) supplemented with 5% horse defibrinated blood (Fisher Scientific, Les Ulis, France) and 2% isovitale-X (Fisher Scientific, Illkirch-Graffenstaden, France). The petri dishes were then incubated at 37 °C for 4–7 days in microaerophilic condition. Then, a colony is transferred to 3 mL Mueller Hinton (MH) broth supplemented with 10% fetal bovine serum (FBS) and 2% isovitale-X. The cultures were then incubated for 4–7 days until the bacteria grow before further experiments.
as §1

[4] = test system: clinical strains of H. pylori; settings: for MIC: MH + 10% FBS + 2% isovitale-X
Description: as §3, §1

H. pylori (ATCC 43504) [5] = test system: H. pylori (ATCC 43504); remark: listed apart in the source
Description: as §1, §2

H. pylori (ATCC 43504) [6] = assay: Membrane permeabilization assay (propidium iodide); settings: not told
Description: Bacterial membrane permeabilization was evaluated using the cell-impermeable DNA/RNA probe propidium iodide as previously explained. Logarithmic growing bacterial suspension of H. pylori (ATCC 43504) was prepared from overnight bacterial suspension after 1:10 dilution. After 3 h incubation at 37 °C, in microaerophilic condition, bacterial suspensions were centrifuged for 5 min at 3000× g. Cell pellets were then resuspended in sterile PBS at about […]. Propidium iodide (solution at 1 mg/mL, Sigma Aldrich) was then added to the suspension at a final concentration of 60 µM. 100 µL of this suspension were then transferred into 96-well black plates and were exposed to increasing concentrations of peptides obtained by serial dilution (from zero to 100 µM, 1:2 dilution). […] Kinetics of fluorescence variations (excitation at 530 nm and emission at 590 nm) were then recorded over 240 min of incubation at 37 °C in micro-aerobic condition using a microplate reader (Biotek, Synergy Mx). The effect of the peptides on the membrane integrity was expressed in percentage of permeabilization, CTAB at 300 µM being used as positive control giving 100% permeabilization. All experiments were done in triplicate.

CC[C@H](C)[C@H](NC(=O)[C@@H](C)NC(=O)[C@H](CO)NC(=O)[C@H](CC(C)C)NC(=O)[C@@H](N)Cc1ccccc1)C(=O)N[C@H](C(=O)NCC(=O)N[C@@H](CCSC)C(=O)N[C@@H](CC(C)C)C(=O)NCC(=O)N[C@@H](CCCCN)C(=O)N[C@@H](CC(C)C)C(=O)N[C@@H](Cc1ccccc1)C(N)=O)C(C)C [NST2, H-Phe^1-Leu^2-Ser^3-D-Ala^4-Ile^5-Val^6-Gly^7-Met^8-Leu^9-Gly^10-Lys^11-Leu^12-Phe^13-NH2] (H-FLS[dA]IVGMLGKLF-NH2)
MIC after Digestion by Pepsin (H. pylori (ATCC 43504) [1]): >50 µM
critical pressure of insertion (CPI) [2]: 37.86 mN/m
IC50 (N87 cells; 48 h incubation, resazurin cell viability, read-out: IC50 on N87 Cells): 1250 ± 240 µM
increase in toxicity to human gastric cells compared to temporin-SHa (N87 cells; from IC50 on N87 cells): around 1.2 fold
MIC on H. pylori (ATCC 43504) (H. pylori (ATCC 43504) [3]; MH medium, 24 h, microaerophilic): 12.5 µM
MIC on H. pylori (ATCC 43504) in MH supplemented with 10% FBS (H. pylori (ATCC 43504) [3]; MH supplemented with 10% FBS): 50 µM
reduction in the antibacterial activity compared to temporin-SHa (H. pylori (ATCC 43504) [3]; from MIC on H. pylori (ATCC 43504)): 4 times
MIC values against resistant clinical strains (span over all strains) ([4]; all resistant clinical strains, MH + 10% FBS): 50 to 100 µM
MIC ([4]; clinical strain BM18, resistance Clari/Metro): 50 µM
MIC ([4]; clinical strain EM68, resistance Clari/Metro): 100 µM
MIC ([4]; clinical strain LN18, resistance Clari): 50 µM
MIC ([4]; clinical strain MF76, resistance Clari/Metro): 50 µM
MIC ([4]; clinical strain MP78, resistance Clari/Metro): 50 µM
MIC ([4]; clinical strain MS67, resistance Clari/Metro): 50 µM
MIC ([4]; clinical strain NM44, resistance Clari/Metro): 50 µM
increase of MIC in the presence of mucins (H. pylori (ATCC 43504) [5]; MUC2 and MUC3 at 1 mg/mL versus no mucins): two
MIC in the Presence of mucins (H. pylori (ATCC 43504) [5]; porcine gastric mucins MUC2 and MUC3 at 1 mg/mL): 25 µM

CC[C@H](C)[C@H](NC(=O)[C@@H](C)NC(=O)[C@H](CO)NC(=O)[C@H](CC(C)C)NC(=O)[C@@H](N)Cc1ccccc1)C(=O)N[C@H](C(=O)N[C@H](C)C(=O)N[C@@H](CCSC)C(=O)N[C@@H](CC(C)C)C(=O)N[C@H](C)C(=O)N[C@@H](CCCCN)C(=O)N[C@@H](CC(C)C)C(=O)N[C@@H](Cc1ccccc1)C(N)=O)C(C)C [NST5, H-Phe^1-Leu^2-Ser^3-D-Ala^4-Ile^5-Val^6-D-Ala^7-Met^8-Leu^9-D-Ala^10-Lys^11-Leu^12-Phe^13-NH2] (H-FLS[dA]IV[dA]ML[dA]KLF-NH2)
critical pressure of insertion (CPI) [2]: 33.99 mN/m
membrane permeabilization of H. pylori (ranking in words) (H. pylori (ATCC 43504) [6]): weakest permeabilization effect
increase in toxicity to human gastric cells compared to temporin-SHa (N87 cells): twice
IC50 (N87 cells; 48 h): 762 ± 235 µM
MIC on H. pylori (ATCC 43504) (H. pylori (ATCC 43504) [3]; ATCC 43504, 24 h): 100 µM

CC[C@H](C)[C@H](NC(=O)[C@H](C)NC(=O)[C@H](CO)NC(=O)[C@H](CC(C)C)NC(=O)[C@@H](N)Cc1ccccc1)C(=O)N[C@H](C(=O)NCC(=O)N[C@@H](CCSC)C(=O)N[C@@H](CC(C)C)C(=O)N[C@@H](C)C(=O)N[C@@H](CCCCN)C(=O)N[C@@H](CC(C)C)C(=O)N[C@@H](Cc1ccccc1)C(N)=O)C(C)C [NSTL7, H-Phe^1-Leu^2-Ser^3-L-Ala^4-Ile^5-Val^6-Gly^7-Met^8-Leu^9-L-Ala^10-Lys^11-Leu^12-Phe^13-NH2] (H-FLSAIVGMLAKLF-NH2)
critical pressure of insertion (CPI) [2]: not able to insert at all
membrane permeabilization of H. pylori (ranking in words) (H. pylori (ATCC 43504) [6]): weakest permeabilization effect
IC50 (N87 cells; 48 h): 2290 ± 762 µM
MIC on H. pylori (ATCC 43504) (H. pylori (ATCC 43504) [3]; ATCC 43504, 24 h): 50 µM
